Source: patent publication US20260265267A1, “NOVEL COMPOUNDS WITH MTORC2-INHIBITORY ACTIVITY AND USES THEREOF” (Aliad Biopharma, priority 2023, published 2026)

Key:
mTORC2 = target: T1, mTORC2 (Homo sapiens, UniProt P42345); test: mTORC2 inhibitory activity in HeLa cells (Akt Ser473 phosphorylation, Western blot); format: cell-based; conditions: for remaining activity at 40 µM / selective inhibition of mTORC2: 9 hours; for remaining activity at 40 µM: read-out: pSer473-AKT/AKT (% control); for inhibition at 40 µM: HeLa, 9 h, read-out: reduction in Akt Ser473 phosphorylation compared to the control group; for selective inhibition of mTORC2: 40 μM, versus mTORC1
T1 construct: the following experiments were conducted in HeLa cells; endogenous in cells; host or cells: HeLa
Procedure: (§1) Specifically, HeLa cells were cultured in a 5% CO2 incubator at 37° C. in DMEM (Dulbecco's Modified Eagles Media) medium supplemented with 10% FBS, penicillin (100 unit/ml), and streptomycin (100 μg/ml). Cultivation was started by seeding 4×10^5 cells in a 100 mm culture dish, and subculture was carried out every 3 days.
(§2) Human cell line HeLa cells were seeded in a 60 mm culture dish at a density of 2×10^5 cells/plate, and cultured for 24 hours. Then, HeLa cells were treated with 70 types of compounds at a concentration of 40 μM each for 9 hours. HeLa cells were washed twice with cold 1×PBS, and then lysed with 100 μl of RIPA buffer (50 mM Tris-HCl (pH7.4), 0.25% sodium deoxycholate, 50 mM NaF, 1% NP-40, 150 mM NaCl, 1 mM β-glycerophosphate, 1 mM PMSF, 1 mM NaVO4, 1 μg/ml leupeptin, 1 μg/ml pepstatin A, 10 nM calyculin A, 10 μg/ml aprotinin, 1 mM EDTA) to hemolyze the cell membrane. Then, the lysates were centrifuged at 12,000 rpm at 4° C. for 10 minutes to collect the supernatant, which is cell lysate. Protein concentration in the cell lysate was determined using the BCA protein assay kit (Thermo Fisher Scientific), and equal amounts of protein were separated by SDS-PAGE.
(§3) Western blot analysis was performed by the following method. […] After washing the membrane three times for 5 minutes each with TBS-T buffer, it was incubated with primary antibodies diluted in TBS-T buffer containing 5% skim milk or 5% BSA overnight at 4° C. Subsequently, the membrane was washed three times for 5 minutes each with TBS-T buffer, and then incubated with secondary antibodies diluted in TBS-T buffer containing 5% skim milk at room temperature for 30 minutes. The membrane was washed five times for 5 minutes each with TBS-T buffer containing 5% skim milk, and then the protein bands bound by the secondary antibody were detected using a chemiluminescence method. The primary antibodies used were Akt (cell signaling, #4691), pAkt(S473) (Cell signaling, #4060), p70S6K (Cell signaling, #S6198), pp70S6K(T389) (cell signaling, #9205S), LC3-II (MBL, #PM036), and the secondary antibodies used were HRP conjugated anti-rabbit (Jackson immunoresearch laboratory, #711-035-152) and HRP conjugated anti-mouse IgG (Jackson immunoresearch laboratory, #515-035-072).
As an mTORC2 activity indicator in HeLa cells, the level of Akt Ser473 phosphorylation was selected as a marker, and the phosphor-Akt (Ser473) signal obtained from Western blot analysis was normalized to the pan-Akt signal, and the data were expressed as a percentage relative to the control group treated with DMSO only, which is a vehicle.

mTORC1 = target: T2, mTORC1 (Homo sapiens, UniProt P42345); test: mTORC1 inhibitory activity in HeLa cells (p70S6K Thr389 phosphorylation, Western blot); format: cell-based; conditions: for remaining activity at 40 µM: read-out: pThr389-S6K/S6K (% control); for inhibition at 40 µM: HeLa, 9 h, read-out: reduction in p70S6K Thr389 phosphorylation compared to the control group
T2 construct: the following experiments were conducted in HeLa cells; endogenous in cells; host or cells: HeLa
Procedure: as §1, §2, §3
As an mTORC1 activity indicator in HeLa cells, the level of p70S6K Thr389 phosphorylation was selected as a marker, and the level of phosphor-p70S6K (Thr389) signal measured by Western blot analysis was normalized to a level of pan-p70S6K signal, and then expressed as a percentage of the control group treated with only DMSO, which is a vehicle.

LC3-II = LC3-II formation as indicator of autophagy in HeLa cells (Western blot); format: cell-based, human; conditions: Homo sapiens, 9 hours, read-out: LC3-II (% control)
Procedure: as §1, §2, §3
LC3-II formation was selected as an indicator of autophagy in HeLa cells, and the LC3-II signal obtained from Western blot analysis was normalized to the pan-Akt signal and the data were expressed as a percentage relative to the control group treated with DMSO only, which is a vehicle.

| remaining activity at 40 µM (mTORC2) | inhibition at 40 µM (mTORC2) | remaining activity at 40 µM (mTORC1; 9 hours) | inhibition at 40 µM (mTORC1) | selective inhibition of mTORC2 (mTORC2) | increase in S6K Thr389 phosphorylation (mTORC1; 40 μM, 9 hours) | Structure (SMILES) | activity at 40 µM (LC3-II) |
| --- | --- | --- | --- | --- | --- | --- | --- |
| 73% | > 20% | 122% |  | selectively inhibit mTORC2 |  | CS(=O)(=O)Nc1ccc2c(c1F)COc1cc3c(cc1C2=O)OCO3 [HN2302, N-(7-fluoro-11-oxo-6,11-dihydro-[1,3]dioxolo[4′,5′:4,5]benzo[1,2-b]benzo[e]oxepin-8-yl)methanesulfonamide] | 108% |
| 28% | > 20% | 179% |  | selectively inhibit mTORC2 |  | O=C1c2cc(F)ccc2COc2cc3c(cc21)OCO3 [HN2203, 9-fluoro[2]benzoxepino[3,4-f]-1,3-benzodioxol-11(6H)-one] | 119% |
| 42% | > 20% | 109% |  | selectively inhibit mTORC2 |  | O=C1c2cc3c(cc2OCc2c1ccc(NC1CC1)c2F)OCO3 [HN2318, 8-(cyclopropylamino)-7-fluoro-[1,3]dioxolo[4′,5′:4,5]benzo[1,2-b]benzo[e]oxepin-11(6H)-one] | 227% |
| 66% | > 20% | 100% |  | selectively inhibit mTORC2 |  | O=C1c2cc3c(cc2OCc2c1ccc(F)c2F)OCO3 [HN2225, 7,8-difluoro[2]benzoxepino[3,4-f]-1,3-benzodioxol-11(6H)-one] | 100% |
| 54% | > 20% | 81% |  | selectively inhibit mTORC2 |  | CS(=O)(=O)Nc1cc2c(cc1F)C(=O)c1cc3c(cc1OC2)OCO3 [HN2301, N-(9-fluoro-11-oxo-6,11-dihydro-[1,3]dioxolo[4′,5′:4,5]benzo[1,2-b]benzo[e]oxepin-8-yl)methanesulfonamide] | 96% |
| 100% |  | 49% | > 20% |  |  | O=C1c2cc3c(cc2OCc2c1ccc(NC1CCCCC1)c2F)OCO3 [HN2231, 8-(cyclohexylamino)-7-fluoro[2]benzoxepino[3,4-f]-1,3-benzodioxol-11(6H)-one] | 122% |
| 79% | > 20% | 78% | > 20% |  |  | O=C1c2cc3c(cc2OCc2c1ccc(NC1CCCC1)c2F)OCO3 [HN2319, 8-(cyclopentylamino)-7-fluoro-[1,3]dioxolo[4′,5′:4,5]benzo[1,2-b]benzo[e]oxepin-11(6H)-one] | 157% |

Continued, compound first:

| Structure (SMILES) | remaining activity at 40 µM (mTORC2) | inhibition at 40 µM (mTORC2) | remaining activity at 40 µM (mTORC1; 9 hours) | inhibition at 40 µM (mTORC1) | selective inhibition of mTORC2 (mTORC2) | increase in S6K Thr389 phosphorylation (mTORC1; 40 μM, 9 hours) | activity at 40 µM (LC3-II) |
| --- | --- | --- | --- | --- | --- | --- | --- |
| COc1cc2c(cc1OC)C(=O)c1cc(-c3cc(OC)c(OC)c(OC)c3)ccc1CS2 [HN2305, 2,3-dimethoxy-9-(3,4,5-trimethoxyphenyl)dibenzo[b,e]thiepin-11(6H)-one] | 47% | > 20% | 64% | > 20% |  |  |  |
| O=C1c2cc(F)c(N3CCCCC3)cc2COc2cc3c(cc21)OCO3 [HN2211, 8-(piperidinyl)-9-fluoro[2]benzoxepino[3,4-f]-1,3-benzodioxol-11(6H)-one] | 118% |  | 77% | > 20% |  |  | 122% |
| O=C1c2cc(-c3ccoc3)ccc2COc2cc3c(cc21)OCO3 [HN2216, 9-(3-furanyl)[2]benzoxepino[3,4-f]-1,3-benzodioxol-11(6H)-one] | 64% | > 20% | 121% |  | selectively inhibit mTORC2 | 21% | 99% |
| COc1cc2c(cc1OC)C(=O)c1cc(-c3ccc(Cl)cc3)ccc1CS2 [HN2309, 9-(4-chlorophenyl)-2,3-dimethoxydibenzo[b,e]thiepin-11(6H)-one] | 66% | > 20% | 106% |  | selectively inhibit mTORC2 |  |  |
| COc1cc2c(cc1OC)C(=O)c1cc(F)c(NC3CCCC3)cc1CC2 [HN2321, 2-(cyclopentylamino)-3-fluoro-7,8-dimethoxy-10,11-dihydro-5H-dibenzo[a,d][7]annulen-5-one] | 140% |  | 33% | > 20% |  |  | 160% |
| COc1ccc(CNc2cc3c(cc2F)C(=O)c2cc4c(cc2OC3)OCO4)c(OC)c1 [HN2328, 8-((2,4-dimethoxybenzyl)amino)-9-fluoro-[1,3]dioxolo[4′,5′:4,5]benzo[1,2-b]benzo[e]oxepin-11(6H)-one] | 78% | > 20% | 86% |  | selectively inhibit mTORC2 |  | 340% |
| COc1cc2c(cc1OC)C(=O)c1cc(-c3ccc(C)cc3)ccc1CS2 [HN2307, 2,3-dimethoxy-9-(p-tolyl)dibenzo[b,e]thiepin-11(6H)-one] | 72% | > 20% | 106% |  | selectively inhibit mTORC2 |  |  |
| COc1ccc(-c2ccc3c(c2)C(=O)c2cc(OC)c(OC)cc2SC3)cc1 [HN2306, 2,3-dimethoxy-9-(4-methoxyphenyl)dibenzo[b,e]thiepin-11(6H)-one] | 64% | > 20% | 257% |  | selectively inhibit mTORC2 |  |  |
| COc1cc2c(cc1OC)C(=O)c1cc(F)c(N3CCN(c4ccccc4)CC3)cc1CC2 [HN2316, 3-fluoro-7,8-dimethoxy-2-(4-phenylpiperazin-1-yl)-10,11-dihydro-5H-dibenzo[a,d][7]annulen-5-one] | 20% | > 20% | 38% | > 20% |  |  | 256% |
| COc1cc2c(cc1OC)C(=O)c1cc(F)c(NCc3ccccc3)cc1CC2 [HN2317, 2-(benzylamino)-3-fluoro-7,8-dimethoxy-10,11-dihydro-5H-dibenzo[a,d][7]annulen-5-one] | 107% |  | 69% | > 20% |  |  |  |
| COc1cccc(CNc2cc3c(cc2F)C(=O)c2cc4c(cc2OC3)OCO4)c1 [HN2325, 9-fluoro-8-((3-methoxybenzyl)amino)-[1,3]dioxolo[4′,5′:4,5]benzo[1,2-b]benzo[e]oxepin-11(6H)-one] | 87% |  | 44% | > 20% |  |  | 249% |
| COc1ccc(CNc2cc3c(cc2F)C(=O)c2cc4c(cc2OC3)OCO4)cc1OC [HN2329, 8-((3,4-dimethoxybenzyl)amino)-9-fluoro-[1,3]dioxolo[4′,5′:4,5]benzo[1,2-b]benzo[e]oxepin-11(6H)-one] | 36% | > 20% | 57% | > 20% |  |  | 386% |
| COc1ccc(CNc2cc3c(cc2F)C(=O)c2cc4c(cc2OC3)OCO4)cc1 [HN2326, 9-fluoro-8-((4-methoxybenzyl)amino)-[1,3]dioxolo[4′,5′:4,5]benzo[1,2-b]benzo[e]oxepin-11(6H)-one] | 69% | > 20% | 153% |  | selectively inhibit mTORC2 |  | 404% |
